Source: publication PMC11204762, “Purification and Structural Analyses of Sulfated Polysaccharides from Low-Value Sea Cucumber Stichopus naso and Anticoagulant Activities of Its Oligosaccharides” (Marine Drugs, 2024)
Values joined by “and” are separate entries in the source; they are usually repeats but may differ in a detail not shown here. Equal entries are not always repeated.

Tests used:
[1] = tested on: intrinsic coagulation pathway (APTT of human plasma); experiment: Anticoagulant activity: APTT with a coagulometer, APTT reagent and standard human plasma; type: biochemical; details: for 2APTT: concentration required to double the APTT of human plasma (EC2.0×): standard human plasma, EC2.0× ± SD (n = 2)
Method: The anticoagulant activities of natural SnFG and its oligosaccharides 3, 4, 5, and 6 were assessed using a coagulometer (TECO, MC-2000) using APTT reagents and standard human plasma, according to a previous method. Briefly, 5 μL of a series of concentrations of the samples was added to a standard preheated to 37 °C and another 45 μL of standard human plasma was added for co-incubation at 37 °C for 2 min, followed by the addition of 50 μL of APTT reagent for incubation for another 3 min. Subsequently, 50 μL of CaCl2 (0.02 M) was added and the timer was started.
(§1) Activities of natural HfFG (FG from H. fuscopunctata) and its oligosaccharides oHG-8, oHG-11, oHG-14, and oHG-17 were simultaneously detected for comparison.

[2] = target: T1, intrinsic factor Xase complex (iXase, VIIIa-IXa-PL-Ca2+ complex) (Homo sapiens, UniProt P00740); experiment: Inhibition of iXase: chromogenic substrate assay, BIOPHEN FVIII:C kit and recombinant human factor VIII; type: biochemical; details: IC50 ± SE (n = 2)
T1 construct: intrinsic factor Xase complexes (iXase, VIIIa-IXa-PL-Ca^2+ complex); purchased BIOPHEN FVIII:C (assay kit)
T1 sequence (P00740 47-191 limits assumed): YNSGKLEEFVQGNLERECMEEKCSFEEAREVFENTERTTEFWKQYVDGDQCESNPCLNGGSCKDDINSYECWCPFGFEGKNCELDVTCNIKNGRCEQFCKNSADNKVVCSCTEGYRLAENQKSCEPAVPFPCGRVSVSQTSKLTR
T1 sequence (P00740 227-461 limits assumed): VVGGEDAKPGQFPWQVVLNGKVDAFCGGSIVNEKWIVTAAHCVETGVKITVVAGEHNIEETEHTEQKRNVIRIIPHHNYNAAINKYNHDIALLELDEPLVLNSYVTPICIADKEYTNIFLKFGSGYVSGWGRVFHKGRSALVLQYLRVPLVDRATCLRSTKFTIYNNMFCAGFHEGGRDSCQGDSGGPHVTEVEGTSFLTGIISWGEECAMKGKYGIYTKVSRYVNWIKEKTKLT
Method: Inhibition of iXase was assessed using the chromogenic substrate assay and the FVIII assay kit BIOPHEN FVIII:C: containing R1 (FX), R2 (Activation Reagent), and R3 (SXa-11) and recombinant human factor VIII (FVIII). A total of 30 μL of each sample was added to the 96-well plate, followed by 30 μL of R2 and 30 μL of FVIII solution (2 IU/mL), and the place was placed in the microplate reader. The plates were mixed and incubated at 37 °C for 2 min. Then, 30 μL of R1 was added to mix and incubated at 37 °C for 1 min, and finally, 30 μL of R3 was added. The absorbance value at 405 nm (OD405nm) was recorded via a microplate reader, and continuous reading was performed for 2min at 15 s intervals. The experiments were performed in duplicate. The average value of OD405nm was linearly fitted to time, and the slope (the rate of change in absorbance value ΔOD405nm/min) corresponded to the iXase activity.
as §1

## L-Fuc2S4S-α(1,3)-L-Δ^4,5HexA-α(1,3)-D-GalNAc4S6S-β(1,4)-[L-Fuc2S4S-α(1,3)]-D-GlcA-β(1,3)-D-GalNAc4S6S-β(1,4)-[L-Fuc2S4S-α(1,3)]-D-GlcA-ol [compound 3]
[1]; EC2.0× 20.94 vs. 32.35 μg/mL
  fold stronger than oHG-8 in APTT prolongation (EC2.0×): about 1.5 fold
[1]
  2APTT: concentration required to double the APTT of human plasma (EC2.0×): 20.94 µg/mL and 20.94 ± 0.27 µg/mL
[2]
  Anti-iXase: concentration required to inhibit 50% Xase activity (IC50): 0.335 ± 0.02473 µg/mL

## enoxaparin [LMWH, reference compound]
[1]
  2APTT: concentration required to double the APTT of human plasma (EC2.0×): 7.46 ± 0.02 µg/mL
[2]
  Anti-iXase: concentration required to inhibit 50% Xase activity (IC50): 0.08444 ± 0.00799 µg/mL
